Experimental data as given in patent US11813306B2, “Cyclic tetramer compounds as proprotein convertase subtilisin/kexin type 9 (PCSK9) inhibitors for the treatment of metabolic disorders” (NOVARTIS AG, priority 2018, dated 2023).

Biological target: human PCSK9 (Homo sapiens, UniProt Q8NBP7)
Test: PCSK9 ligand binding assay (TR-FRET): interference with binding of human PCSK9 to human LDLR
Settings: for IC50: Human PCSK9 Alexa Fluor 647 / Human LDLR extracellular domain-Europium Kryptate; for Max % inhibition: efficacy (Amax), 100% = 1 uM unlabeled human PCSK9, 0% = DMSO
Outline: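 Read-out was TR-FRET ratio (665 nm over 615 nm, 330 nm excitation) between Alexa Fluor 647-human PCSK9 (16 nM added) and Europium Kryptate-human LDLR ectodomain (4 nM added). Compound and PCSK9 were mixed 30 min before LDLR, then incubated 2 h. Inhibition was normalised to DMSO and unlabelled-PCSK9 controls, giving IC50 and Amax.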

Chain of human PCSK9 (Q8NBP7 153-692): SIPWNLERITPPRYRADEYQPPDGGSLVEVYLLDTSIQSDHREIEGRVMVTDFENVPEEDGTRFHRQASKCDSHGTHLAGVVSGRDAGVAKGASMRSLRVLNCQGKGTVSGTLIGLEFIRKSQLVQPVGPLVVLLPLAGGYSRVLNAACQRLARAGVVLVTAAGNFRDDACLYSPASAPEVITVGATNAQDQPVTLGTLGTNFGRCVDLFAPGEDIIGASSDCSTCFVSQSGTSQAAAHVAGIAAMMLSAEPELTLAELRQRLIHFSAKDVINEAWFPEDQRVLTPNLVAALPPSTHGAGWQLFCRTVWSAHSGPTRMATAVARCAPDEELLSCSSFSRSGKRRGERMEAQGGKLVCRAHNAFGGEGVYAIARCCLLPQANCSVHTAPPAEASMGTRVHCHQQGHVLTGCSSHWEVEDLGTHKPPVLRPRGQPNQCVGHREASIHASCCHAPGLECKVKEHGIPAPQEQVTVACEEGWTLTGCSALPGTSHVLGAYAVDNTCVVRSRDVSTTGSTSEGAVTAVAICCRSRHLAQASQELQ
Chain of human PCSK9 (Q8NBP7 31-152 partner limits assumed): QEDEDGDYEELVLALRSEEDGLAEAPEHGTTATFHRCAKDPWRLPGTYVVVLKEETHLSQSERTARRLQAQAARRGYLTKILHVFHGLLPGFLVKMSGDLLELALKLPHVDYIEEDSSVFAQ

Row | IC50 [nM] | Max % inhibition [%] | SMILES
1 | 5.69 | 107.5 | C[C@H]1C(=O)N[C@@H](CO)C(=O)N(C)[C@@]2(Cc3ccc(Cl)cc3)CCCN(C2)C(=O)[C@@H](CC(F)(F)F)CC(=O)N1Cc1c(F)cc(Cl)cc1Oc1ccc(-c2cnc(CN(C)C)n2C)cc1 [Compound 151, (3R, 7S, 10S, 13R)-6-(4-chloro-2-(4-(2-((dimethylamino)methyl)-1-methyl-1H-imidazol-5-yl)phenoxy)-6-fluorobenzyl)-13-(4-chlorobenzyl)-10-(hydroxymethyl)-7,12-dimethyl-3-(2,2,2-trifluoroethyl)-1,6,9,12-tetraazabicyclo[11.3.1]heptadecane-2,5,8,11-tetraone]
2 | 0.529 | 97.5 | C[C@H]1C(=O)N[C@@H](CO)C(=O)N[C@@]2(Cc3ccc(Cl)cc3)CCCN(C2)C(=O)[C@H]([C@H]2CCc3ncccc32)CC(=O)N1Cc1ccc(Cl)cc1Oc1ccc(-c2cnc(CN(C)C)n2C)cc1.Cl [Compound 16, (3S, 7S, 10S, 13R)-6-(4-chloro-2-(4-(2-((dimethylamino)methyl)-1-methyl-1H-imidazol-5-yl)phenoxy)benzyl)-13-(4-chlorobenzyl)-3-((R)-6,7-dihydro-5H-cyclopenta[b]pyridin-5-yl)-10-(hydroxymethyl)-7-methyl-1,6,9,12-tetraazabicyclo[11.3.1]heptadecane-2,5,8,11-tetraone]
3 | 0.85 | 113.1 | COC[C@@H]1NC(=O)[C@H](C)N(Cc2c(F)cc(Cl)cc2Oc2ccc(-c3cnc(CN(C)C(C)(C)C)n3C)cc2)C(=O)C[C@@H](C2CC(F)(F)C2)C(=O)N2CCC[C@@](Cc3ccc(Cl)cc3)(C2)N(C)C1=O [Compound 169, (3S, 7S, 10S, 13R)-6-(2-(4-(2-((tert-butyl(methyl)amino)methyl)-1-methyl-1H-imidazol-5-yl)phenoxy)-4-chloro-6-fluorobenzyl)-13-(4-chlorobenzyl)-3-(3,3-difluorocyclobutyl)-10-(methoxymethyl)-7,12-dimethyl-1,6,9,12-tetraazabicyclo[11.3.1]heptadecane-2,5,8,11-tetraone]
4 | 1.05 | 113.0 | COC[C@@H]1NC(=O)[C@H](C)N(Cc2ccc(Cl)cc2Oc2ccc(-c3cnc(CN4CCC4)n3C)cc2)C(=O)C[C@@H](CC(F)(F)F)C(=O)N2CCC[C@@](Cc3ccc(Cl)cc3)(C2)NC1=O [Compound 33, (3S,7S,10S,13R)-6-(2-(4-(2-(Azetidin-1-ylmethyl)-1-methyl-1H-imidazol-5-yl)phenoxy)-4-chlorobenzyl)-13-(4-chlorobenzyl)-10-(methoxymethyl)-7-methyl-3-(2,2,2-trifluoroethyl)-1,6,9,12-tetraazabicyclo[11.3.1]heptadecane-2,5,8,11-tetraone]
5 | 490 | 93.6 | COC[C@@H]1NC(=O)[C@H](C)N(Cc2ccc(Cl)cc2Oc2ccc(-c3cnc(CN4CCCC4)n3C)cc2)C(=O)C[C@@H](N(C)C)C(=O)N(C)C[C@@H](Cc2ccc(Cl)cc2)N(C)C1=O.Cl [Compound 134, (2S, 5S, 8R, 12R)-1-(4-chloro-2-(4-(1-methyl-2-(pyrrolidin-1-ylmethyl)-1H-imidazol-5-yl)phenoxy)benzyl)-8-(4-chlorobenzyl)-12-(dimethylamino)-5-(methoxymethyl)-2,7,10-trimethyl-1,4,7,10-tetraazacyclotetradecane-3,6,11,14-tetraone]
6 | 1.51 | 104.5 | C[C@H]1C(=O)N[C@@H](CO)C(=O)N(C)[C@H](Cc2ccc(Cl)cc2)CNC(=O)[C@H](Cc2ccccc2)CC(=O)N1Cc1ccc(Cl)cc1Oc1ccc(-c2cnc(CN3CCCC3)n2C)cc1.Cl [Compound 89, (2S, 5S, 8R, 12R)-12-benzyl-1-(4-chloro-2-(4-(1-methyl-2-(pyrrolidin-1-ylmethyl)-1H-imidazol-5-yl)phenoxy)benzyl)-8-(4-chlorobenzyl)-5-(hydroxymethyl)-2,7-dimethyl-1,4,7,10-tetraazacyclotetradecane-3,6,11,14-tetraone]
7 | 0.549 | 104.5 | C[C@H]1C(=O)N[C@@H](CO)C(=O)N(C)[C@@]2(Cc3ccc(Cl)cc3)CCCN(C2)C(=O)[C@H](Cc2ccccn2)CC(=O)N1Cc1ccc(Cl)cc1Oc1ccc(-c2cnc(CN(C)C)n2C)cc1 [Compound 18, (3R,7S,10S,13R)-6-(4-Chloro-2-(4-(2-((dimethylamino)methyl)-1-methyl-1H-imidazol-5-yl)phenoxy)benzyl)-13-(4-chlorobenzyl)-10-(hydroxymethyl)-7,12-dimethyl-3-(pyridin-2-ylmethyl)-1,6,9,12-tetraazabicyclo[11.3.1]heptadecane-2,5,8,11-tetraone]
8 | 0.74 | 98.1 | COC[C@@H]1NC(=O)[C@H](C)N(Cc2c(F)cc(Cl)cc2Oc2ccc(-c3cnc(CN)n3C)cc2)C(=O)C[C@@H](C2CC(F)(F)C2)C(=O)N2CCC[C@@](Cc3ccc(Cl)cc3)(C2)N(C)C1=O [Compound 166, (3S, 7S, 10S, 13R)-6-(2-(4-(2-(aminomethyl)-1-methyl-1H-imidazol-5-yl)phenoxy)-4-chloro-6-fluorobenzyl)-13-(4-chlorobenzyl)-3-(3,3-difluorocyclobutyl)-10-(methoxymethyl)-7,12-dimethyl-1,6,9,12-tetraazabicyclo[11.3.1]heptadecane-2,5,8,11-tetraone]
9 | 0.624 | 106.6 | C[C@H]1C(=O)N[C@@H](CO)C(=O)N[C@@]2(Cc3ccc(Cl)cc3)CCCN(C2)C(=O)[C@H](Cc2cccc(C(F)(F)F)c2)CC(=O)N1Cc1c(F)cc(Cl)cc1Oc1ccc(-c2cnc(CN(C)C)n2C)cc1 [Compound 80, (3R, 7S, 10S, 13R)-6-(4-chloro-2-(4-(2-((dimethylamino)methyl)-1-methyl-1H-imidazol-5-yl)phenoxy)-6-fluorobenzyl)-13-(4-chlorobenzyl)-10-(hydroxymethyl)-7-methyl-3-(3-(trifluoromethyl)benzyl)-1,6,9,12-tetraazabicyclo[11.3.1]heptadecane-2,5,8,11-tetraone]
10 | 0.96 | 110.3 | COC[C@@H]1NC(=O)[C@H](C)N(Cc2c(F)cc(Cl)cc2Oc2ccc(-c3cnc(CN(C)C)n3C)cc2)C(=O)C[C@@H](CC(C)(F)F)C(=O)N2CCC[C@@](Cc3ccc(Cl)cc3)(C2)N(C)C1=O [Compound 158, (3S, 7S, 10S, 13R)-6-(4-chloro-2-(4-(2-((dimethylamino)methyl)-1-methyl-1H-imidazol-5-yl)phenoxy)-6-fluorobenzyl)-13-(4-chlorobenzyl)-3-(2,2-difluoropropyl)-10-(methoxymethyl)-7,12-dimethyl-1,6,9,12-tetraazabicyclo[11.3.1]heptadecane-2,5,8,11-tetraone]
11 | 0.558 | 106.4 | COC[C@@H]1NC(=O)[C@H](C)N(Cc2ccc(Cl)cc2Oc2ccc(-c3cnc(CN(C)C)n3C)cc2)C(=O)C[C@@H](Cc2cccc(C)n2)C(=O)N2CCC[C@@](Cc3ccc(Cl)cc3)(C2)NC1=O [Compound 4, (3R,7S,10S,13R)-6-(4-Chloro-2-(4-(2-((dimethylamino)methyl)-1-methyl-1H-imidazol-5-yl)phenoxy)benzyl)-13-(4-chlorobenzyl)-10-(methoxymethyl)-7-methyl-3-((6-methylpyridin-2-yl)methyl)-1,6,9,12-tetraazabicyclo[11.3.1]heptadecane-2,5,8,11-tetraone]
